Test results from PubChem BioAssay AID1963426 (Molecular Pharmacology Branch, DTP, NCI, 2024).
“And” between values parts separate entries of the source, which are not always exact repeats. Equal values may be shown once.

Test system: 186277-243-T-J2-PDC complex spheroid growth, % test/control
Experiment: Anticancer human tumor 186277-243-T-J2-PDC patient-derived colon adenocarcinoma cell line growth inhibition [Asc]
Settings: for viability, T/C: stronger effect = lower value; active = viability on the fitted dose curve at most 10% of control; inactive = the rest
Outline: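 Concentration series start at each agent's clinical Cmax, or at 10 microM when none is established, and drop in half-log steps; agents are applied alone or together to complex spheroids built with HUVEC and hMSC.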
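Note: spheroids exposed to agents for 7 days.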
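Throughout, for viability, T/C: 100% = DMSO vehicle control wells.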

Cn1ncnc1[C@H]1c2n[nH]c(=O)c3cc(F)cc(c23)N[C@@H]1c1ccc(F)cc1 + CCN1C(C(=O)NC23CCC(C(=O)O)(CC2)CC3)C(c2cccc(Cl)c2F)C2(C(=O)Nc3cc(Cl)ccc32)C12CCCCC2
< 0.316 nM: IC50 (curve of first compound, second compound 3 µM)
> 100 nM: IC50 (curve of first compound, second compound 0.03 µM) | IC50 (curve of first compound, second compound 0.0949 µM) | IC50 (curve of first compound, second compound 0.3 µM)
inactive: viability, T/C (second compound 0.03 µM, first compound 0.000316 µM) 130% | viability, T/C (second compound 0.03 µM, first compound 0.001 µM) 116% | viability, T/C (second compound 0.03 µM, first compound 0.00316 µM) 107% | viability, T/C (second compound 0.03 µM, first compound 0.01 µM) 91.3% | viability, T/C (second compound 0.03 µM, first compound 0.0316 µM) 80.9% | viability, T/C (second compound 0.03 µM, first compound 0.1 µM) 87.2% | viability, T/C (second compound 0.0949 µM, first compound 0.000316 µM) 98.3% | viability, T/C (second compound 0.0949 µM, first compound 0.001 µM) 82.1% | viability, T/C (second compound 0.0949 µM, first compound 0.00316 µM) 87.6% | viability, T/C (second compound 0.0949 µM, first compound 0.01 µM) 77.5% | viability, T/C (second compound 0.0949 µM, first compound 0.0316 µM) 76.5% | viability, T/C (second compound 0.0949 µM, first compound 0.1 µM) 65.8% | viability, T/C (second compound 0.3 µM, first compound 0.000316 µM) 75% | viability, T/C (second compound 0.3 µM, first compound 0.001 µM) 69% | viability, T/C (second compound 0.3 µM, first compound 0.00316 µM) 65.9% | viability, T/C (second compound 0.3 µM, first compound 0.01 µM) 63.6% | viability, T/C (second compound 0.3 µM, first compound 0.0316 µM) 63.1% | viability, T/C (second compound 0.3 µM, first compound 0.1 µM) 59.3% | viability, T/C (second compound 0.949 µM, first compound 0.000316 µM) 52.4% | viability, T/C (second compound 0.949 µM, first compound 0.001 µM) 56.5% | viability, T/C (second compound 0.949 µM, first compound 0.00316 µM) 49.4% | viability, T/C (second compound 0.949 µM, first compound 0.01 µM) 43% | viability, T/C (second compound 0.949 µM, first compound 0.0316 µM) 42% | viability, T/C (second compound 0.949 µM, first compound 0.1 µM) 41.4% | viability, T/C (second compound 3 µM, first compound 0.000316 µM) 30.1% | viability, T/C (second compound 3 µM, first compound 0.001 µM) 32.3% | viability, T/C (second compound 3 µM, first compound 0.00316 µM) 31.9% | viability, T/C (second compound 3 µM, first compound 0.01 µM) 26% | viability, T/C (second compound 3 µM, first compound 0.0316 µM) 22.9% | viability, T/C (second compound 3 µM, first compound 0.1 µM) 25.8%
2.14 nM: IC50 (curve of first compound, second compound 0.949 µM)

NC1CCC(NC2CC2c2ccccc2)CC1 (centres undefined)
inactive: viability, T/C (compound 0.000316 µM) 104% and 75.7% and 107% | viability, T/C (compound 0.001 µM) 96.8% and 96.6% and 112% | viability, T/C (compound 0.00316 µM) 101% and 79% and 98.9% | viability, T/C (compound 0.01 µM) 96.4% and 84.1% and 93.7% | viability, T/C (compound 0.0316 µM) 83.8% and 77.6% and 108% | viability, T/C (compound 0.1 µM) 79.2% and 72.9% and 88.8%
> 100 nM: IC50 (curve of compound)

CCN1C(C(=O)NC23CCC(C(=O)O)(CC2)CC3)C(c2cccc(Cl)c2F)C2(C(=O)Nc3cc(Cl)ccc32)C12CCCCC2 (centres undefined)
inactive: viability, T/C (compound 0.00949 µM) 110% and 119%
1860 nM and > 3000 nM: IC50 (curve of compound)
